# Measurements taken from patent US20160287571A1, “PHARMACEUTICAL COMPOSITIONS COMPRISING ANTIBACTERIAL AGENTS” (priority 2013, published 2016).
# Like-named read-outs stand apart in the source and are kept apart here.
# How the values were obtained:
# Assay type in all cases: cell-based, Acinetobacter baumannii
# [1] = tested on: A. baumannii G 156 (OXA 51, OXA 23); assay: MIC in Muller Hinton Agar (CLSI agar dilution)
# Description: (§1) The antibacterial activity of combinations according to the invention against resistant bacterial strains was investigated. Minimum Inhibitory Concentration (MIC) for the combinations according to invention was determined in Muller Hinton Agar (MHA) (BD, USA) according to Clinical and Laboratory Standards Institute (CLSI) recommendations (Clinical and Laboratory Standards Institute (CLSI), Performance Standards for Antimicrobial Susceptibility Testing, 20th Informational Supplement, M 100-S20, Volume 30, No. 1, 2010). Typically, the test strains were adjusted to deliver about 10^4 CFU per spot with a multipoint inoculator (Applied Quality Services, UK). The plates were pored with MHA containing doubling concentration range of the test combinations according to invention. The plates were inoculated and were incubated at 35° C. for 18 hours.
# [2] = tested on: A. baumannii J 144 (OXA 51, OXA 23); assay: MIC in Muller Hinton Agar (CLSI agar dilution)
# Description: as §1
# [3] = tested on: A. baumannii M 126 (OXA 51, OXA 23); assay: MIC in Muller Hinton Agar (CLSI agar dilution)
# Description: as §1
# [4] = tested on: A. baumannii NCTC 13301 (OXA 51, OXA 23); assay: MIC in Muller Hinton Agar (CLSI agar dilution)
# Description: as §1
# [5] = tested on: A. baumannii NCTC 13302 (OXA 51, OXA 25); assay: MIC in Muller Hinton Agar (CLSI agar dilution)
# Description: as §1
# [6] = tested on: A. baumannii NCTC 13303 (OXA 51, OXA 26); assay: MIC in Muller Hinton Agar (CLSI agar dilution)
# Description: as §1
# [7] = tested on: A. baumannii NCTC 13304 (OXA 51, OXA 27); assay: MIC in Muller Hinton Agar (CLSI agar dilution)
# Description: as §1
# [8] = tested on: A. baumannii NCTC 13305 (OXA 51, OXA 58); assay: MIC in Muller Hinton Agar (CLSI agar dilution)
# Description: as §1
# [9] = tested on: A. baumannii Q 1460648 (OXA 51, OXA 23); assay: MIC in Muller Hinton Agar (CLSI agar dilution)
# Description: as §1
# [10] = tested on: A. baumannii NCTC 13302 (OXA 51, OXA 25); assay: Time kill study; conditions: for Bacterial count: initial count 6.54 log CFU/ml; for Effect on bacterial counts throughout the duration of the study (in words): A. baumannii NCTC 13302, summary of Table 3
# Description: (§2) The synergistic killing effect of the combinations according to invention was studied using time kill studies. In a typical time kill study, freshly grown cultures were diluted to the required cell density (initial starting inoculum) in Cation adjusted Muller Hinton broth medium (BD, USA). The antibacterial agents (either alone or in combination) at the required concentrations were added into the culture-containing medium. The samples were incubated under shaking condition (120 rpm) at 37° C. Enumeration of viable bacterial count was done every 2 hour by diluting in normal saline and plating on to the Tryptic Soya Agar plates (BD, USA). The plates were incubated for 24 hours to arrive at the viable bacterial count. The results are expressed in terms of Log CFU per […]. In general, the decrease of 1 Log CFU/ml, corresponds to 90% killing of bacteria. Similarly, 2 Log CFU/ml reductions indicates 99% killing of bacteria and 3 Log CFU/ml reductions is equal to 99.9% killing of bacteria.
# [11] = tested on: A. baumannii NCTC 13304 (OXA 51, OXA 27); assay: Time kill study; conditions: for Bacterial count: initial count 6.06 log CFU/ml
# Description: as §2
# [12] = Acinetobacter baumannii, agent alone, A. baumannii G 156, read-out: MIC
# [13] = Acinetobacter baumannii, agent alone, A. baumannii J 144, read-out: MIC
# [14] = Acinetobacter baumannii, agent alone, A. baumannii M 126, read-out: MIC
# [15] = Acinetobacter baumannii, NCTC13301, agent alone, A. baumannii NCTC 13301, read-out: MIC
# [16] = Acinetobacter baumannii, NCTC13302, agent alone, A. baumannii NCTC 13302, read-out: MIC
# [17] = Acinetobacter baumannii, NCTC13303, agent alone, A. baumannii NCTC 13303, read-out: MIC
# [18] = Acinetobacter baumannii, NCTC13304, agent alone, A. baumannii NCTC 13304, read-out: MIC
# [19] = Acinetobacter baumannii, NCTC13305, agent alone, A. baumannii NCTC 13305, read-out: MIC
# [20] = Acinetobacter baumannii, agent alone, A. baumannii Q 1460648, read-out: MIC
# [21] = 2 hours, agent alone at 4 mcg/ml
# [22] = 4 hours, agent alone at 4 mcg/ml
# [23] = 6 hours, agent alone at 4 mcg/ml
compound,measurement,setting,value
"O=C(NNC(=O)[C@@H]1CC[C@@H]2CN1C(=O)N2OS(=O)(=O)O)[C@@H]1CCCNC1 [Compound of Formula (I), (2S, 5R)-sulphuric acid mono-[2-(N′-[(R)-piperidin-3-carbonyl]-hydrazinocarbonyl)-7-oxo-1,6-diaza-bicyclo[3.2.1]oct-6-yl] ester]",MIC,[1]; [12],> 32 µg/mL
same,MIC,[2]; [13],> 32 µg/mL
same,MIC,[3]; [14],> 32 µg/mL
same,MIC,[4]; [15],> 32 µg/mL
same,MIC,[5]; [16],> 32 µg/mL
same,MIC,[6]; [17],> 32 µg/mL
same,MIC,[7]; [18],> 32 µg/mL
same,MIC,[8]; [19],> 32 µg/mL
same,MIC,[9]; [20],> 32 µg/mL
same,Bacterial count,[10]; [21],7.5 Log CFU/ml
same,Bacterial count,[10]; [22],7.8 Log CFU/ml
same,Bacterial count,[10]; [23],7.95 Log CFU/ml
same,Bacterial count,"[10]; 8 hours, agent alone at 4 mcg/ml",8.4 Log CFU/ml
same,Effect on bacterial counts throughout the duration of the study (in words),[10],did not reduce the bacterial counts
same,Bacterial count,[11]; [21],7 Log CFU/ml
same,Bacterial count,[11]; [22],7.55 Log CFU/ml
same,Bacterial count,[11]; [23],8.1 Log CFU/ml
same,Effect on bacterial counts throughout the duration of the study (in words),"[11]; A. baumannii NCTC 13304, summary of Table 4",did not reduce the bacterial counts
"C[C@@H](O)[C@H]1C(=O)N2C(C(=O)O)=C(SCCN=CN)C[C@H]12 [Imipenem, imipenem]",MIC,[1]; [12],16 µg/mL
same,MIC,[2]; [13],> 32 µg/mL
same,MIC,[3]; [14],16 µg/mL
same,MIC,[4]; [15],32 µg/mL
same,MIC,[5]; [16],> 32 µg/mL
same,MIC,[6]; [17],> 32 µg/mL
same,MIC,[7]; [18],32 µg/mL
same,MIC,[8]; [19],8 µg/mL
same,MIC,[9]; [20],32 µg/mL
same,Bacterial count,"[10]; 2 hours, agent alone at 8 mcg/ml",7.87 Log CFU/ml
same,Bacterial count,"[10]; 4 hours, agent alone at 8 mcg/ml",8.27 Log CFU/ml
same,Bacterial count,"[10]; 6 hours, agent alone at 8 mcg/ml",8.07 Log CFU/ml
same,Bacterial count,"[10]; 8 hours, agent alone at 8 mcg/ml",8.47 Log CFU/ml
same,Bacterial count,"[11]; 2 hours, agent alone at 16 mcg/ml",6.34 Log CFU/ml
same,Bacterial count,"[11]; 4 hours, agent alone at 16 mcg/ml",7.47 Log CFU/ml
same,Bacterial count,"[11]; 6 hours, agent alone at 16 mcg/ml",7.07 Log CFU/ml
"C[C@@H](O)[C@H]1C(=O)N2C(C(=O)O)=C(S[C@@H]3CN[C@H](C(=O)N(C)C)C3)[C@H](C)[C@H]12 [Meropenem, meropenem]",MIC,[1]; [12],32 µg/mL
same,MIC,[3]; [14],32 µg/mL
same,MIC,[6]; [17],> 32 µg/mL
same,MIC,[7]; [18],32 µg/mL
same,MIC,[8]; [19],4 µg/mL
same,MIC,[9]; [20],32 µg/mL
"CN(C)c1cc(NC(=O)CNC(C)(C)C)c(O)c2c1C[C@H]1C[C@H]3[C@H](N(C)C)C(O)=C(C(N)=O)C(=O)[C@@]3(O)C(O)=C1C2=O [Tigecycline, tigecycline]",MIC,[1]; Acinetobacter baumannii,1 µg/mL
same,MIC,[2]; Acinetobacter baumannii,2 µg/mL
same,MIC,[3]; Acinetobacter baumannii,0.5 µg/mL
same,MIC,"[4]; Acinetobacter baumannii, NCTC13301",2 µg/mL
same,MIC,"[5]; Acinetobacter baumannii, NCTC13302",2 µg/mL
same,MIC,"[6]; Acinetobacter baumannii, NCTC13303",2 µg/mL
same,MIC,"[7]; Acinetobacter baumannii, NCTC13304",0.5 µg/mL
same,MIC,"[8]; Acinetobacter baumannii, NCTC13305",0.5 µg/mL
same,MIC,[9]; Acinetobacter baumannii,1 µg/mL
same,Bacterial count,"[10]; 2 hours, agent alone at 1 mcg/ml",3.47 Log CFU/ml
same,Bacterial count,"[10]; 4 hours, agent alone at 1 mcg/ml",3 Log CFU/ml
same,Bacterial count,"[10]; 6 hours, agent alone at 1 mcg/ml",3 Log CFU/ml
same,Bacterial count,"[10]; 8 hours, agent alone at 1 mcg/ml",3.23 Log CFU/ml
same,Effect on bacterial counts throughout the duration of the study (in words),[10],exhibited the reduction of the bacterial counts
colistin,MIC,"[1]; agent alone, A. baumannii G 156",1 µg/mL
same,MIC,"[2]; agent alone, A. baumannii J 144",1 µg/mL
same,MIC,"[3]; agent alone, A. baumannii M 126",1 µg/mL
same,MIC,"[4]; agent alone, A. baumannii NCTC 13301",2 µg/mL
same,MIC,"[5]; agent alone, A. baumannii NCTC 13302",2 µg/mL
same,MIC,"[6]; agent alone, A. baumannii NCTC 13303",1 µg/mL
same,MIC,"[7]; agent alone, A. baumannii NCTC 13304",1 µg/mL
same,MIC,"[8]; agent alone, A. baumannii NCTC 13305",1 µg/mL
same,MIC,"[9]; agent alone, A. baumannii Q 1460648",1 µg/mL
